From ChEMBL document CHEMBL4017480, “Discovery and optimization of selective FGFR4 inhibitors via scaffold hopping” (Bioorg Med Chem Lett, 2017)
Converted amounts (≈) assume the structure as drawn.

Key:
[1] = Octanol-buffer distribution co-efficient, log D of the compound at pH 7.4; format: physicochemical
[2] = Kinetic solubility of the compound at pH 7.4; format: physicochemical; settings: buffer, read-out: Kinetic_solubility
[3] = target: Fibroblast growth factor receptor 1 (Homo sapiens, UniProt P11362); test: Inhibition of recombinant human His-tagged FGFR1 cytoplasmic domain (308 to 731 residues) expressed in baculovirus expression system using tyr 04 as substrate measured within 60 mins by Z-LYTE assay
[4] = Efflux ratio of apparent permeability from basolateral to apical over apical to basolateral side in MDCK2-MDR1 cells at 2 uM after 2.5 hrs LC-MS/MS analysis; format: ADME, cell-based, Canis lupus familiaris; settings: dog, MDCK-MDR1
[5] = target: T1, Tyrosine-protein kinase JAK3 (Homo sapiens) (UniProt P52333); test: Inhibition of human JAK3 at 10 uM using GEEEEYFELVKKKK as substrate measured after 120 mins in presence of [gamma33P]ATP by P81 ion exchange chromatographic method relative to control
T1 sequence (whole entry): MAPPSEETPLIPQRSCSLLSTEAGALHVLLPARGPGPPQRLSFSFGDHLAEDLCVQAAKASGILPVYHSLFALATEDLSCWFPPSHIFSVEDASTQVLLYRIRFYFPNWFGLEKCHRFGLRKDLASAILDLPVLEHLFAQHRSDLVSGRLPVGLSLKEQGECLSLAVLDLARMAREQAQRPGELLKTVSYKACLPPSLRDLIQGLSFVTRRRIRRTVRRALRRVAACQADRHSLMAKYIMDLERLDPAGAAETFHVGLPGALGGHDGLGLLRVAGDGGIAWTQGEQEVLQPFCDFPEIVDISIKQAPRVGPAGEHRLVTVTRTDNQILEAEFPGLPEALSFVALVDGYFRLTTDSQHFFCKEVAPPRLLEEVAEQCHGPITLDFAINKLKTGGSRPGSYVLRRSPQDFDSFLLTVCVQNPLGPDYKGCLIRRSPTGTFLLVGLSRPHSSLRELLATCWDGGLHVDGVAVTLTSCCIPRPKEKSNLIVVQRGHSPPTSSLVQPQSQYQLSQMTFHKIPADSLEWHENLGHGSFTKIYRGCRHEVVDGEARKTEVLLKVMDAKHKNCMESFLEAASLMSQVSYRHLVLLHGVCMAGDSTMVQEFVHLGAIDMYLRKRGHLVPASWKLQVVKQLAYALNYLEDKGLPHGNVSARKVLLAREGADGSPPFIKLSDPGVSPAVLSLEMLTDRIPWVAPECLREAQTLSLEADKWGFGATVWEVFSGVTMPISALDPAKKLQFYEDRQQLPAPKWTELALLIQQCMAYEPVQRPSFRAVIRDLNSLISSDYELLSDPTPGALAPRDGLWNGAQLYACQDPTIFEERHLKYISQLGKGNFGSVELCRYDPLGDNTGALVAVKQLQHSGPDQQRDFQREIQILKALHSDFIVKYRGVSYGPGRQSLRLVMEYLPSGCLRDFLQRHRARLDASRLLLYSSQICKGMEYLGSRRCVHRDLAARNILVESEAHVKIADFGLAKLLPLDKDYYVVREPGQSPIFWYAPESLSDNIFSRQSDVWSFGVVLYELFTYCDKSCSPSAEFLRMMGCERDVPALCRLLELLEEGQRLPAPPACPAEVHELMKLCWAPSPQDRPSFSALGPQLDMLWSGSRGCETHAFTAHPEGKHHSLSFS

[6] = Stability in human plasma assessed as compound remaining at 2 uM measured after 2 hrs by LC-MS/MS analysis; format: ADME, cell-free; settings: read-out: Stability
[7] = target: Tyrosine-protein kinase BTK (Homo sapiens, UniProt Q06187); test: Inhibition of human BTK using KVEKIGEGTYGVVYK as substrate measured after 120 mins in presence of [gamma33P]ATP by P81 ion exchange chromatographic method
Chain of Tyrosine-protein kinase BTK (Q06187 whole entry): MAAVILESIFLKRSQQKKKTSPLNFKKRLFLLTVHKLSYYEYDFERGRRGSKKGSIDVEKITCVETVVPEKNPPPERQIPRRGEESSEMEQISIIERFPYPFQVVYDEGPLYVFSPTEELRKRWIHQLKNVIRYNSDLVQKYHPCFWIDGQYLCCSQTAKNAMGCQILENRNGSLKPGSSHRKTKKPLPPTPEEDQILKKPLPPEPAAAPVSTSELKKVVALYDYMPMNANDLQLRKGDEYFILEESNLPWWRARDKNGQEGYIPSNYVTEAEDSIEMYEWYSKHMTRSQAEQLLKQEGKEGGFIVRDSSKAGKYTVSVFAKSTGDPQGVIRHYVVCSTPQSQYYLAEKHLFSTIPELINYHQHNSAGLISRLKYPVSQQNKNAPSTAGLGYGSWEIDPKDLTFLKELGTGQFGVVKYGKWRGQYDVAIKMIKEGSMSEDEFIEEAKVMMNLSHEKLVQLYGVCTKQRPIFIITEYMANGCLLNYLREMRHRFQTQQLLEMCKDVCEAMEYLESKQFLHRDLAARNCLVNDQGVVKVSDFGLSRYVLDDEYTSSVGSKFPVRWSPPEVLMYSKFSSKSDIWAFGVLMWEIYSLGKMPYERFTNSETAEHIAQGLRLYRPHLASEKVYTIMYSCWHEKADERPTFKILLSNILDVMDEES

[8] = target: T2, Epidermal growth factor receptor (Homo sapiens, UniProt P00533); test: Inhibition of human EGFR at 10 uM using poly[Glu:Tyr] (4:1) as substrate measured after 120 mins in presence of [gamma33P]ATP by P81 ion exchange chromatographic method relative to control
T2 sequence (P00533 whole entry): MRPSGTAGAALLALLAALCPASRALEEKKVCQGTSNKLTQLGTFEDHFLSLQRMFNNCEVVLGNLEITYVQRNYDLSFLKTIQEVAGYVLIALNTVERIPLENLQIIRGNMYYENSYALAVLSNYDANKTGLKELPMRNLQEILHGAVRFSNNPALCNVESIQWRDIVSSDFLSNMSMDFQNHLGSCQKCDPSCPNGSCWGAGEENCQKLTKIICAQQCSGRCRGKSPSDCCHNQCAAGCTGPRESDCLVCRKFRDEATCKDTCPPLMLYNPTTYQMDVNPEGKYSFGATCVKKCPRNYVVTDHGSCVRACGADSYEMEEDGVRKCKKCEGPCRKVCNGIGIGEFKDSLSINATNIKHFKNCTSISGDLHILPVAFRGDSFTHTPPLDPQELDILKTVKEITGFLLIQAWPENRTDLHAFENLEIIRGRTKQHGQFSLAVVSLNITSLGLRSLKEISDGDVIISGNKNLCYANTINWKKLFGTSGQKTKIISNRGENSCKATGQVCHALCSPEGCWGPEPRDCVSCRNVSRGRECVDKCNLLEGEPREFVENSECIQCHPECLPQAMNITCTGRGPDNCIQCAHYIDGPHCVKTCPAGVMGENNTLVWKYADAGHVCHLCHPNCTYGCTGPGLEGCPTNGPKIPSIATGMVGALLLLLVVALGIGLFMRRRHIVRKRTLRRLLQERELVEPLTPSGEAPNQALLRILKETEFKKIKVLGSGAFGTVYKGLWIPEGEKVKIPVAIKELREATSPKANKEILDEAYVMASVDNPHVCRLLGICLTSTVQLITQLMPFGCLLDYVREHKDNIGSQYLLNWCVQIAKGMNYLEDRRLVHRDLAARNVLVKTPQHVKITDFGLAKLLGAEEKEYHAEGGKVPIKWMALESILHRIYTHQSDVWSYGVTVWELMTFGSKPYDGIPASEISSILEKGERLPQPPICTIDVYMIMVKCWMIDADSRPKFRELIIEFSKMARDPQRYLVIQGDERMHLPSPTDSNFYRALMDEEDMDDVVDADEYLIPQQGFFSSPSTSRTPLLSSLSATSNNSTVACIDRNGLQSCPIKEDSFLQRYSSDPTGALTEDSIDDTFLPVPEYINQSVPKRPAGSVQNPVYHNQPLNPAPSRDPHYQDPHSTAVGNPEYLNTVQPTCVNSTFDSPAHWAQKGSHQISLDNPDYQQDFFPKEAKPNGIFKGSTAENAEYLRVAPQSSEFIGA

Cytochrome P450 3A4 = Cytochrome P450 3A4 (Homo sapiens, UniProt P08684); test: Inhibition of CYP3A4 in human liver microsomes using midazolam as substrate pretreated for 10 mins followed by substrate addition measured after 10 mins in presence of NADPH by LC-MS/MS method; format: ADME
Chain of Cytochrome P450 3A4 (P08684 whole entry): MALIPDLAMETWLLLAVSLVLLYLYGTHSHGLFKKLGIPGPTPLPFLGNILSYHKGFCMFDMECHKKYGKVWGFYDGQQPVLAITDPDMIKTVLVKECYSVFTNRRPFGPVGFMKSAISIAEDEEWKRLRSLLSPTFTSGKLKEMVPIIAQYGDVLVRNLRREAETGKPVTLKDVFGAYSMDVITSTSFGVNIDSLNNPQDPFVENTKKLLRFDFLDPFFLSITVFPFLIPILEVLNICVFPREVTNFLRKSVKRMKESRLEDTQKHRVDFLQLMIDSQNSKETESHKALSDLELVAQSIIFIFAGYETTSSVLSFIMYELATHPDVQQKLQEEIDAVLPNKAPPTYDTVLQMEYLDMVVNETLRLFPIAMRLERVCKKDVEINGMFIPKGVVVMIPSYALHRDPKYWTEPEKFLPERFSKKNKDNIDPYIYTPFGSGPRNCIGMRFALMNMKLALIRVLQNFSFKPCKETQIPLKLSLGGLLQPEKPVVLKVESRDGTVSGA

[9] = target: T3, Tyrosine-protein kinase JAK3 (Homo sapiens, UniProt P52333); test: Inhibition of human JAK3 using GEEEEYFELVKKKK as substrate measured after 120 mins in presence of [gamma33P]ATP by P81 ion exchange chromatographic method
T3 sequence (P52333 whole entry): T1 sequence (whole entry)

VEGFR2 = VEGFR2 (Homo sapiens, UniProt P35968); test: Inhibition of human VEGFR2 at 10 uM using poly[Glu:Tyr] (4:1) as substrate measured after 120 mins in presence of [gamma33P]ATP by P81 ion exchange chromatographic method relative to control; settings: human VEGFR2 kinase, probe poly[Glu:Tyr] (4:1)
Chain of VEGFR2 (P35968 whole entry): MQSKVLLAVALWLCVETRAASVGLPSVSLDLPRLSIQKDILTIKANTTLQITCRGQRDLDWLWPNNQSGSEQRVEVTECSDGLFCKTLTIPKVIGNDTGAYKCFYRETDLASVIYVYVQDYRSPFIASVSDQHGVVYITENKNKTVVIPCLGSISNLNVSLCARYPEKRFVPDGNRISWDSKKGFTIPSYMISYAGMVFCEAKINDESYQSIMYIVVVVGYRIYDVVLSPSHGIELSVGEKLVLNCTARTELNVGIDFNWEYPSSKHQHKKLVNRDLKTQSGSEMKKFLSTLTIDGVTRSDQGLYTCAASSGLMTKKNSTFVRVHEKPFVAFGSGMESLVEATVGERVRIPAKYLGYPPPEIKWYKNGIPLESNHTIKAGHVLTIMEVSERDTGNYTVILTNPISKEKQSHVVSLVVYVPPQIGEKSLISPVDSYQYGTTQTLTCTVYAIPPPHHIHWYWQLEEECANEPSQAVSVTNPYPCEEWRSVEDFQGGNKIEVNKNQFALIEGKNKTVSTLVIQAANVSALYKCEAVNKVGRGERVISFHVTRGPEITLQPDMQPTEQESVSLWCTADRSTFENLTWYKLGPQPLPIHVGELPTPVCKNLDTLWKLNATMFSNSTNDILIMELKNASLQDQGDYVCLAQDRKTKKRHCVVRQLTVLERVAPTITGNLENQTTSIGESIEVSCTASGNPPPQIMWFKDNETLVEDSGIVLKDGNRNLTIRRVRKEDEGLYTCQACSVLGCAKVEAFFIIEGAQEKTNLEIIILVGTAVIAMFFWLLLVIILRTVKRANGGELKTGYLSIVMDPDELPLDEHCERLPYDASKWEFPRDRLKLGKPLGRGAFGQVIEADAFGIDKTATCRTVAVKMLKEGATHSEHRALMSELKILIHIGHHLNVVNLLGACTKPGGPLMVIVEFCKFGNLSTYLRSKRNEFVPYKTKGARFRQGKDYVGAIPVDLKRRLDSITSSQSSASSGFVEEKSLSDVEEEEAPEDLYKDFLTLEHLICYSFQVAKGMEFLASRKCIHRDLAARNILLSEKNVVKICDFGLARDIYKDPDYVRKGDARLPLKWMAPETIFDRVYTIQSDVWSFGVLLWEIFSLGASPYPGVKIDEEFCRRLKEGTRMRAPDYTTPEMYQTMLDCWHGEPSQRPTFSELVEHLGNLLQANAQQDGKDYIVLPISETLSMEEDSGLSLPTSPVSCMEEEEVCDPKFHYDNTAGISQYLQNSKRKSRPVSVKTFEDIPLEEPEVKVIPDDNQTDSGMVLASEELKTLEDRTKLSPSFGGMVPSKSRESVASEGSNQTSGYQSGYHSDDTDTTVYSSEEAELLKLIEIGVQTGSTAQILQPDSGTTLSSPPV

[10] = target: T2, Epidermal growth factor receptor; test: Inhibition of human EGFR using poly[Glu:Tyr] (4:1) as substrate measured after 120 mins in presence of [gamma33P]ATP by P81 ion exchange chromatographic method
[11] = target: Fibroblast growth factor receptor 4 (Homo sapiens, UniProt P22455); test: Inhibition of recombinant human N-terminal His-tagged FGFR4 cytoplasmic domain […] expressed in baculovirus expression system using tyr 04 peptide as substrate measured within 90 mins by Z-LYTE assay
Cytochrome P450 2D6 = Cytochrome P450 2D6 (Homo sapiens, UniProt P10635); test: Inhibition of CYP2D6 in human liver microsomes using dextromethorphan as substrate pretreated for 10 mins followed by substrate addition measured after 10 mins in presence of NADPH by LC-MS/MS method; format: ADME
[12] = target: Macrophage colony-stimulating factor 1 receptor (Homo sapiens, UniProt P07333); test: Inhibition of human FMS at 10 uM using poly[Glu:Tyr] (4:1) as substrate measured after 120 mins in presence of [gamma33P]ATP by P81 ion exchange chromatographic method relative to control
Chain of Macrophage colony-stimulating factor 1 receptor (P07333 whole entry): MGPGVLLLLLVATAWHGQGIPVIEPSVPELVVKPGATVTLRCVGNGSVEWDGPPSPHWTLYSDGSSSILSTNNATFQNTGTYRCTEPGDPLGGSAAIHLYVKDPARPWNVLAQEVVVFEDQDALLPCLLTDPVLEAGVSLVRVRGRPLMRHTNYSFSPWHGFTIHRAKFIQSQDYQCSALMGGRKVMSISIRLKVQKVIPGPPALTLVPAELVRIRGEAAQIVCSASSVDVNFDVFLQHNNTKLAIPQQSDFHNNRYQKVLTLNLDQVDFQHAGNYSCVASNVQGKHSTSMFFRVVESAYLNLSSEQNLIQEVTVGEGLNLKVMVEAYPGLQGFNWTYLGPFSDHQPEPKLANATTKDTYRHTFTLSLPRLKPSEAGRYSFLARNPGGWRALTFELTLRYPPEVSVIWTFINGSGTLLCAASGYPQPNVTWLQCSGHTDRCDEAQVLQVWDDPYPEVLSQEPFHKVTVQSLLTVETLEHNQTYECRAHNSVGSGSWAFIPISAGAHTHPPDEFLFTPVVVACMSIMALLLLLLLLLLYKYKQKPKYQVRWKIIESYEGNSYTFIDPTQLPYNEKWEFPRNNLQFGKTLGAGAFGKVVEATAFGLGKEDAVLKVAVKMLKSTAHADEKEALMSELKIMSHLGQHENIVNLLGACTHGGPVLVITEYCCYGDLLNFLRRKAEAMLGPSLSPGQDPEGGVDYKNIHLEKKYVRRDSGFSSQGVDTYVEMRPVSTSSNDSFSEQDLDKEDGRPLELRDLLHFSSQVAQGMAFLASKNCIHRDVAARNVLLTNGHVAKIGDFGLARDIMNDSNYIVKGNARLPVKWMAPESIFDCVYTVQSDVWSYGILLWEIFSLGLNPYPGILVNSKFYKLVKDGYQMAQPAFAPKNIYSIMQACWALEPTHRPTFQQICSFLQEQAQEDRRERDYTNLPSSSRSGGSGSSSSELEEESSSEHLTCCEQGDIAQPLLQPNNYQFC

SMILES	logD [1]	solubility kinetic [2] [µg/mL]	IC50 [3] [µM]	efflux ratio at 2.5 h, 2 µM [4]	inhibition [5] [%]	remaining at 2 h, 2 µM [6] [%]	IC50 [7] [µM]	inhibition [8] [%]	IC50 (Cytochrome P450 3A4) [µM]	IC50 [9] [µM]	inhibition at 2 h, 10 µM (VEGFR2) [%]	IC50 [10] [µM]	IC50 [11] [µM]	IC50 (Cytochrome P450 2D6) [µM]	inhibition [12] [%]
C=CC(=O)N[C@H]1COC[C@H]1Nc1ncc(OCc2c(F)c(OC)cc(OC)c2F)cn1	1.8	78 (≈ 179 µM)	3.5	3.8	9	92	> 10	1	13.3	> 10	11	> 10	0.013	> 50	6
C=CC(=O)Nc1cccc(C)c1Nc1ncc(OCc2c(F)c(OC)cc(OC)c2F)cn1	3	39 (≈ 85.4 µM)	8.6	1	7	48	> 10	6	6.9	> 10	19	> 10	0.003	35	4
C=CC(=O)Nc1cccc(C)c1Nc1ncc2cc(-c3c(Cl)c(OC)cc(OC)c3Cl)ccc2n1	> 4.5	< 0.5	–	–	12	71	> 10	1	3	> 10	23	> 10	–	12.5	78
